Source: US8664257B2, “Oxygen-substituted 3-heteroaroylamino-propionic acid derivatives and their use as pharmaceuticals” (Sanofi, priority 2010, dated 2014)

target: T1, Recombinant human cathepsin A (Homo sapiens, UniProt P10619); assay: Cathepsin A inhibitory activity; assay type: biochemical; settings: pharmacological test "Cathepsin A inhibitory activity"; IC50 given as class A/B/C; read-out: Activity (2): Cathepsin A inhibitory activity, IC50 class
T1 construct: Recombinant human cathepsin A (residues 29-480, with a C-terminal 10-His tag); 10-His (C); purchased R&D Systems 1049-SE
T1 sequence (P10619 29-312 limits assumed): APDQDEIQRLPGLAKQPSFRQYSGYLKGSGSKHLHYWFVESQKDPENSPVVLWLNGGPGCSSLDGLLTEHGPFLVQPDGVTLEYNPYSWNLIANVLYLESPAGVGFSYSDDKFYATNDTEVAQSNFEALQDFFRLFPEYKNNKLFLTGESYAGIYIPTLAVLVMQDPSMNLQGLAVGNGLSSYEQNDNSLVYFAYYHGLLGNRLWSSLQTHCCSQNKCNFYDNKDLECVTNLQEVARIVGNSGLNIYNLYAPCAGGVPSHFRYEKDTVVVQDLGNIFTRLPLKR
T1 sequence (P10619 327-480 limits assumed): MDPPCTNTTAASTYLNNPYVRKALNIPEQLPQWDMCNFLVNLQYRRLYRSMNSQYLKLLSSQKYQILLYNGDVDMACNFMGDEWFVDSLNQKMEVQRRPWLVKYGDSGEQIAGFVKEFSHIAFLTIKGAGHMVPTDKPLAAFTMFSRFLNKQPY
In short: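 Human cathepsin A (res. 29-480, C-His10) pre-activated with cathepsin L (MES pH 6.0, DTT, 15 min, 37 °C; quenched with 10 μM E-64). Enzyme (833 ng/ml) preincubated 15 min RT with compound in MES pH 5.5/DTT, then 2 μM Bodipy FL-bradykinin for 15 min RT. Capillary electrophoresis product/substrate peak areas; IC50 from % inhibition.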

Row | SMILES | IC50 [µM]
1 | COc1ccc(Cl)cc1C(CC(=O)O)NC(=O)c1cc(O)n(-c2ccc(F)cc2F)n1 (centres unmarked) [Example 178] | 1 to 30
2 | COc1ccccc1[C@@H](NC(=O)c1cc(O)n(-c2ccc(F)cc2F)n1)[C@@H](O)C(=O)O [Example 188] | 1 to 30
3 | O=C(O)CC(NC(=O)c1cc(O)n(-c2ccc(F)cc2F)n1)c1cccc(C(F)(F)F)c1Cl (centres unmarked) [Example 193] | 0.1 to 1
4 | CCc1ccc(C(CC(=O)O)NC(=O)c2cc(O)n(-c3ccc(F)cc3F)n2)cc1 (centres unmarked) [Example 194] | 0.1 to 1
5 | Cc1ccc(C(CC(=O)O)NC(=O)c2cc(O)n(-c3ccc(F)cc3F)n2)c(C)c1 (centres unmarked) [Example 195] | 0.1 to 1
6 | O=C(O)CC(NC(=O)c1cc(O)n(-c2ccc(F)cc2F)n1)c1ccc(-c2ccccc2)cc1 (centres unmarked) [Example 197] | 0.1 to 1
7 | O=C(O)C[C@H](NC(=O)c1cc(O)n(-c2ccc(F)cc2F)n1)c1ccccc1C(F)(F)F [Example 198] | 0.1 to 1
8 | O=C(O)CC(NC(=O)c1cc(O)n(-c2ccc(F)cc2F)n1)c1ccc(Oc2ccccc2)cc1 (centres unmarked) [Example 199] | 0.1 to 1
9 | O=C(O)C[C@H](NC(=O)c1cc(O)n(-c2ccc(F)cc2F)n1)c1ccc(Cl)cc1 [Example 200] | 0.1 to 1
10 | O=C(O)C[C@H](NC(=O)c1cc(O)n(-c2ccc(F)cc2F)n1)c1ccc(Cl)cc1Cl [Example 201] | 0.1 to 1
11 | O=C(O)CC(NC(=O)c1cc(O)n(-c2ccc(F)cc2F)n1)c1ccc(-c2ccc(F)cc2)cc1 (centres unmarked) [Example 202] | 0.1 to 1
12 | COc1ccc(C(CC(=O)O)NC(=O)c2cc(O)n(-c3ccccc3Cl)n2)c(C)c1 (centres unmarked) [Example 203] | 0.1 to 1
13 | O=C(O)C[C@H](NC(=O)c1cc(O)n(-c2ccccc2Cl)n1)c1ccccc1Br [Example 204] | 0.1 to 1
14 | N#Cc1cccc([C@H](CC(=O)O)NC(=O)c2cc(O)n(-c3ccccc3Cl)n2)c1 [Example 205] | 0.1 to 1
15 | O=C(O)CC(NC(=O)c1cc(O)n(-c2ccccc2Cl)n1)c1cccc(C(F)(F)F)c1 (centres unmarked) [Example 206] | 0.1 to 1
16 | COc1ccc(C(CC(=O)O)NC(=O)c2cc(O)n(-c3ccccc3Cl)n2)c(OC)c1 (centres unmarked) [Example 207] | 0.1 to 1
17 | O=C(O)CC(NC(=O)c1cc(O)n(-c2ccccc2Cl)n1)c1ccccc1F (centres unmarked) [Example 208] | 0.1 to 1
18 | COc1ccc(Cl)cc1C(CC(=O)O)NC(=O)c1cc(O)n(-c2ccccc2Cl)n1 (centres unmarked) [Example 209] | 0.1 to 1
19 | COc1ccc(C(CC(=O)O)NC(=O)c2cc(O)n(-c3ccccc3Cl)n2)c(Cl)c1 (centres unmarked) [Example 210] | 0.1 to 1

Row | SMILES | IC50 [µM]
20 | O=C(O)C[C@H](NC(=O)c1cc(O)n(-c2ccccc2Cl)n1)c1ccc(F)cc1 [Example 211] | 0.1 to 1
21 | COc1cccc([C@H](CC(=O)O)NC(=O)c2cc(O)n(-c3ccccc3Cl)n2)c1 [Example 213] | 0.1 to 1
22 | O=C(O)C[C@H](NC(=O)c1cc(O)n(-c2ccccc2Cl)n1)c1cccc(Cl)c1 [Example 214] | 0.1 to 1
23 | O=C(O)CC(NC(=O)c1cc(O)n(-c2ccccc2Cl)n1)c1ccc(OC(F)(F)F)cc1 (centres unmarked) [Example 215] | 0.1 to 1
24 | COc1ccccc1[C@@H](NC(=O)c1cc(O)n(-c2ccccc2Cl)n1)[C@@H](O)C(=O)O [Example 216] | 1 to 30
25 | Cc1cccc([C@H](CC(=O)O)NC(=O)c2cc(O)n(-c3ccccc3Cl)n2)c1 [Example 217] | 0.1 to 1
26 | O=C(O)C[C@H](NC(=O)c1cc(O)n(-c2ccccc2Cl)n1)c1cccc(C(F)(F)F)c1 [Example 218] | 0.1 to 1
27 | O=C(O)CC(NC(=O)c1cc(O)n(-c2ccccc2Cl)n1)c1ccc(-c2cccc(F)c2)cc1 (centres unmarked) [Example 219] | 0.1 to 1
28 | Cc1cccc(C(CC(=O)O)NC(=O)c2cc(O)n(-c3ccccc3Cl)n2)c1C (centres unmarked) [Example 220] | 0.1 to 1
29 | O=C(O)CC(NC(=O)c1cc(O)n(-c2ccccc2Cl)n1)c1cccc(C(F)(F)F)c1F (centres unmarked) [Example 221, 3-{[1-(2-Chloro-phenyl)-5-hydroxy-1H-pyrazole-3-carbonyl]-amino}-3-(2-fluoro-3-trifluoromethyl-phenyl)-propionic acid] | 0.1 to 1
30 | O=C(O)CC(NC(=O)c1cc(O)n(-c2ccccc2Cl)n1)c1cccc(Cl)c1F (centres unmarked) [Example 222] | 0.1 to 1
31 | O=C(O)CC(NC(=O)c1cc(O)n(-c2ccccc2Cl)n1)c1cccc(C(F)(F)F)c1Cl (centres unmarked) [Example 223] | 0.1 to 1
32 | CCc1ccc(C(CC(=O)O)NC(=O)c2cc(O)n(-c3ccccc3Cl)n2)cc1 (centres unmarked) [Example 224] | 0.1 to 1
33 | Cc1ccc(C(CC(=O)O)NC(=O)c2cc(O)n(-c3ccccc3Cl)n2)c(C)c1 (centres unmarked) [Example 225] | 0.1 to 1
34 | O=C(O)CC(NC(=O)c1cc(O)n(-c2ccccc2Cl)n1)c1ccc(-c2ccccc2)cc1 (centres unmarked) [Example 226] | 0.1 to 1
35 | O=C(O)CC(NC(=O)c1cc(O)n(-c2ccccc2Cl)n1)c1ccc(Cl)c(Cl)c1 (centres unmarked) [Example 227] | 0.1 to 1
36 | O=C(O)CC(NC(=O)c1cc(O)n(-c2ccccc2F)n1)c1cccc2c1OCO2 (centres unmarked) [Example 228] | 0.1 to 1
37 | O=C(O)CC(NC(=O)c1cc(O)n(-c2ccccc2F)n1)c1cccc(OCc2ccccc2)c1 (centres unmarked) [Example 229] | 1 to 30
38 | N#Cc1cccc([C@H](CC(=O)O)NC(=O)c2cc(O)n(-c3ccccc3F)n2)c1 [Example 230] | 0.1 to 1

Continued, values first:

Row | IC50 [µM] | SMILES
39 | 0.1 to 1 | N#Cc1ccc([C@H](CC(=O)O)NC(=O)c2cc(O)n(-c3ccc(F)cc3F)n2)cc1 [Example 176]
40 | 0.1 to 1 | COc1ccccc1[C@H](CC(=O)O)NC(=O)c1cc(O)n(-c2ccc(F)cc2F)n1 [Example 177]
41 | 0.1 to 1 | COc1ccc(C(CC(=O)O)NC(=O)c2cc(O)n(-c3ccc(F)cc3F)n2)c(Cl)c1 (centres unmarked) [Example 179]
42 | 0.1 to 1 | O=C(O)C[C@H](NC(=O)c1cc(O)n(-c2ccc(F)cc2F)n1)c1ccc(F)cc1 [Example 180]
43 | < 0.1 | O=C(O)C[C@H](NC(=O)c1cc(O)n(-c2ccc(F)cc2F)n1)c1cccc(Cl)c1Cl [Example 181]
44 | 0.1 to 1 | COc1cccc([C@H](CC(=O)O)NC(=O)c2cc(O)n(-c3ccc(F)cc3F)n2)c1 [Example 182]
45 | 0.1 to 1 | O=C(O)C[C@H](NC(=O)c1cc(O)n(-c2ccc(F)cc2F)n1)c1cccc(F)c1 [Example 183]
46 | 0.1 to 1 | O=C(O)C[C@H](NC(=O)c1cc(O)n(-c2ccc(F)cc2F)n1)c1cccc(Cl)c1 [Example 184]
47 | 0.1 to 1 | O=C(O)C[C@H](NC(=O)c1cc(O)n(-c2ccc(F)cc2F)n1)c1ccc(C(F)(F)F)cc1 [Example 185]
48 | 0.1 to 1 | O=C(O)CC(NC(=O)c1cc(O)n(-c2ccc(F)cc2F)n1)c1cccc(Cl)c1Cl (centres unmarked) [Example 186]
49 | 0.1 to 1 | O=C(O)CC(NC(=O)c1cc(O)n(-c2ccc(F)cc2F)n1)c1ccc(OC(F)(F)F)cc1 (centres unmarked) [Example 187]
50 | 0.1 to 1 | COc1cccc([C@H](CC(=O)O)NC(=O)c2cc(O)n(-c3ccc(F)cc3F)n2)c1OC [Example 189]
51 | 0.1 to 1 | Cc1cccc([C@H](CC(=O)O)NC(=O)c2cc(O)n(-c3ccc(F)cc3F)n2)c1 [Example 190]
52 | < 0.1 | Cc1cccc(C(CC(=O)O)NC(=O)c2cc(O)n(-c3ccc(F)cc3F)n2)c1C (centres unmarked) [Example 191]
53 | 0.1 to 1 | O=C(O)CC(NC(=O)c1cc(O)n(-c2ccc(F)cc2F)n1)c1cccc(Cl)c1F (centres unmarked) [Example 192]
54 | < 0.1 | Cc1cc(F)ccc1C(CC(=O)O)NC(=O)c1cc(O)n(-c2ccc(F)cc2F)n1 (centres unmarked) [Example 196]
55 | < 0.1 | O=C(O)C[C@H](NC(=O)c1cc(O)n(-c2ccccc2Cl)n1)c1cccc(Cl)c1Cl [Example 212]

same assay, conditions: recombinant human cathepsin A 833 ng/ml, Bodipy FL-labeled bradykinin 2 μM, pH 5.5; read-out: CATH-A IC50

Row | IC50 [µM] | SMILES
56 | 0.322 | O=C(O)CC(NC(=O)c1cc(O)n(-c2ccccc2Cl)n1)c1cccc(C(F)(F)F)c1F (centres unmarked) [Example 221, 3-{[1-(2-Chloro-phenyl)-5-hydroxy-1H-pyrazole-3-carbonyl]-amino}-3-(2-fluoro-3-trifluoromethyl-phenyl)-propionic acid]
